Data on 40 molecules can be found in patent publication US7928098B2, “Therapeutic and/or preventive agents for a sleep disorder” (Kyowa Hakko Kirin Co., Ltd., priority 2005, dated 2011).

By melting point is commonly meant the temperature, or range, at which the solid turns liquid.

The structures appear in SMILES notation. A value given as a limit tells only on which side of the number the result lay.

`Cn1cc(C(=O)c2sc(NC(=O)c3ccncc3)nc2-c2ccco2)ccc1=O` [Compound 267, N-[4-(2-Furyl)-5-(1-methyl-2-oxo-1,2-dihydropyridin-5-ylcarbonyl)thiazol-2-yl]pyridine-4-carboxamide] returned a melting point of 294 to 295 °C.
Then `CCn1cc(C(=O)c2sc(NC(=O)c3ccncc3)nc2-c2ccco2)ccc1=O` [Compound 269, N-[5-(1-Ethyl-2-oxo-1,2-dihydropyridin-5-ylcarbonyl)-4-(2-furyl)thiazol-2-yl]pyridine-4-carboxamide], with 295 to 296 °C; and `O=C(Nc1nc(-c2ccco2)c(C(=O)c2ccc(=O)n(Cc3ccccc3)c2)s1)c1ccncc1` [Compound 271, N-[5-(1-Benzyl-2-oxo-1,2-dihydropyridin-5-ylcarbonyl)-4-(2-furyl)thiazol-2-yl]pyridine-4-carboxamide], with 265 to 282 °C (dec.); and `Cn1ccc(C(=O)c2sc(NC(=O)c3ccncc3)nc2-c2ccco2)cc1=O` [Compound 274, N-[4-(2-Furyl)-5-(1-methyl-2-oxo-1,2-dihydropyridin-4-ylcarbonyl)thiazol-2-yl]pyridine-4-carboxamide], with 243 to 255 °C (dec.).
Then `CCn1ccc(C(=O)c2sc(NC(=O)c3ccncc3)nc2-c2ccco2)cc1=O` [Compound 276, N-[5-(1-Ethyl-2-oxo-1,2-dihydropyridin-4-ylcarbonyl)-4-(2-furyl)thiazol-2-yl]pyridine-4-carboxamide], with 277 to 281 °C; and `O=C(Nc1nc(-c2ccco2)c(C(=O)c2ccn(Cc3ccccc3)c(=O)c2)s1)c1ccncc1` [Compound 278, N-[5-(1-Benzyl-2-oxo-1,2-dihydropyridin-4-ylcarbonyl)-4-(2-furyl)thiazol-2-yl]pyridine-4-carboxamide], with 288 to 291 °C; and `O=C(Nc1nc(-c2ccco2)c(C(=O)c2cnccn2)s1)c1ccncc1` [Compound 281, N-[4-(2-Furyl)-5-(pyrazin-2-ylcarbonyl)thiazol-2-yl]pyridine-4-carboxamide], with more than 300 °C.
The result for `O=C(Nc1nc(-c2ccco2)c(C(=O)c2ccncn2)s1)c1ccncc1` [Compound 282, N-[4-(2-Furyl)-5-(pyrimidine-4-ylcarbonyl)thiazol-2-yl]pyridine-4-carboxamide] reads more than 300 °C; that for `O=C(Nc1nc(-c2ccco2)c(C(=O)c2cccnn2)s1)c1ccncc1` [Compound 283, N-[4-(2-Furyl)-5-(pyridazine-3-ylcarbonyl)thiazol-2-yl]pyridine-4-carboxamide], 280 to 281 °C.
With `CC(=O)c1sc(NC(=O)c2ccncc2)nc1-c1ccco1` [Compound 284, N-[5-Acetyl-4-(2-furyl)thiazol-2-yl]pyridine-4-carboxamide], the melting point was 252 to 259 °C (dec.).
The result for `O=C(Nc1nc(-c2ccco2)c(C(=O)C(F)(F)F)s1)c1ccncc1` [Compound 287, N-[4-(2-Furyl)-5-(trifluoroacetyl)thiazol-2-yl]pyridine-4-carboxamide] reads 268 to 270 °C; that for `CCC(=O)c1sc(NC(=O)c2ccncc2)nc1-c1ccco1` [Compound 288, N-[4-(2-Furyl)-5-propionylthiazol-2-yl]pyridine-4-carboxamide], 225 to 240 °C (dec.); that for `CCCC(=O)c1sc(NC(=O)c2ccncc2)nc1-c1ccco1` [Compound 289, N-[5-Butyryl-4-(2-furyl)thiazol-2-yl]pyridine-4-carboxamide], 191 to 194 °C.
Then `CCCC(=O)c1sc(NC(=O)C2CC2)nc1-c1ccco1` [Compound 292, N-[5-Butyryl-4-(2-furyl)thiazol-2-yl]cyclopropanecarboxamide], with 170 to 172 °C; and `CCCC(=O)c1sc(NC(=O)c2ccco2)nc1-c1ccco1` [Compound 293, N-[5-Butyryl-4-(2-furyl)thiazol-2-yl]furan-2-carboxamide], with 172 to 176 °C.
The result for `CC(C)C(=O)c1sc(N)nc1-c1ccco1` [Compound 299, 2-Amino-4-(2-furyl)thiazol-5-yl isopropyl ketone] reads 195 to 199 °C; that for `CC(C)C(=O)c1sc(NC(=O)c2ccncc2)nc1-c1ccco1` [Compound 300, N-[4-(2-Furyl)-5-isobutyrylthiazol-2-yl]pyridine-4-carboxamide], 179 to 182 °C; that for `CC(C)C(=O)c1sc(NC(=O)C2CC2)nc1-c1ccco1` [Compound 301, N-[4-(2-Furyl)-5-isobutyrylthiazol-2-yl]cyclopropanecarboxamide], 178 to 182 °C.
In turn, `CC(C)(C)C(=O)c1sc(NC(=O)c2ccncc2)nc1-c1ccco1` [Compound 306, N-[4-(2-Furyl)-5-pivaloylthiazol-2-yl]pyridine-4-carboxamide] returned a melting point of 240 to 245 °C.
Then `CC(C)(C)C(=O)c1sc(NC(=O)C2CC2)nc1-c1ccco1` [Compound 307, N-[4-(2-Furyl)-5-pivaloylthiazol-2-yl]cyclopropanecarboxamide], with 133 to 134 °C; and `COCC(=O)c1sc(NC(=O)c2ccc(Cl)nc2)nc1-c1ccco1` [Compound 310, 2-Chloro-N-[4-(2-furyl)-5-(methoxyacetyl)thiazol-2-yl]pyridine-5-carboxamide], with 174 to 183 °C.
Then `COCC(=O)c1sc(NC(=O)c2ccc(F)cc2)nc1-c1ccco1` [Compound 311, 4-Fluoro-N-[4-(2-furyl)-5-(methoxyacetyl)thiazol-2-yl]benzamide], with 166 to 167 °C.
The result for `COCC#CC(=O)c1sc(NC(=O)c2ccncc2)nc1-c1ccco1` [Compound 319, N-[4-(2-Furyl)-5-(3-methoxyprop-1-ynylcarbonyl)thiazol-2-yl]pyridine-4-carboxamide] reads 198 to 200 °C; that for `O=C(Nc1nc(-c2ccco2)c(C(=O)C2CC2)s1)c1ccncc1` [Compound 323, N-[5-(Cyclopropylcarbonyl)-4-(2-furyl)thiazol-2-yl]pyridine-4-carboxamide], 225 to 230 °C (dec.); that for `COc1ccccc1C(=O)Nc1nc(-c2ccco2)c(C(=O)C2CC2)s1` [Compound 326, N-[5-(Cyclopropylcarbonyl)-4-(2-furyl)thiazol-2-yl]-2-methoxybenzamide], 150 to 154 °C.
`Nc1nc(-c2ccco2)c(C(=O)C2CCC2)s1` [Compound 329, 2-Amino-4-(2-furyl)thiazol-5-yl cyclobutyl ketone]: the melting point was 125 to 160 °C (dec.).
The result for `O=C(Nc1nc(-c2ccco2)c(C(=O)C2CCC2)s1)c1ccncc1` [Compound 330, N-[5-(Cyclobutylcarbonyl)-4-(2-furyl)thiazol-2-yl]pyridine-4-carboxamide] reads 227 to 235 °C (dec.).
The result for `O=C(Nc1nc(-c2ccco2)c(C(=O)C2CCC2)s1)c1ccco1` [Compound 331, N-[5-(Cyclobutylcarbonyl)-4-(2-furyl)thiazol-2-yl]furan-2-carboxamide] reads 188 to 192 °C; that for `N#Cc1ccc(C(=O)Nc2nc(-c3ccco3)c(C(=O)C3CCC3)s2)cc1` [Compound 332, 4-Cyano-N-[5-(cyclobutylcarbonyl)-4-(2-furyl)thiazol-2-yl]benzamide], 220 to 225 °C; that for `O=C(Nc1nc(-c2ccco2)c(C(=O)C2CCC2)s1)C1CC1` [Compound 333, N-[5-(Cyclobutylcarbonyl)-4-(2-furyl)thiazol-2-yl]cyclopropanecarboxamide], 200 to 205 °C.
The result for `O=C(Nc1nc(-c2ccco2)c(C(=O)C2CCCC2)s1)C1CC1` [Compound 339, N-[5-(Cyclopentylcarbonyl)-4-(2-furyl)thiazol-2-yl]cyclopropanecarboxamide] reads 182 to 187 °C.
In turn, `O=C(c1sc(NC(=O)N2CCOCC2)nc1-c1ccco1)C1CCCC1` [Compound 340, N-[5-(Cyclopentylcarbonyl)-4-(2-furyl)thiazol-2-yl]morpholine-4-carboxamide] had a melting point of 108 to 110 °C.
Then `O=C(Nc1nc(-c2ccco2)c(C(=O)C2CCCCC2)s1)c1ccncc1` [Compound 344, N-[5-(Cyclohexylcarbonyl)-4-(2-furyl)thiazol-2-yl]pyridine-4-carboxamide], with 197 to 199 °C; and `COC1CCC(C(=O)c2sc(NC(=O)c3ccncc3)nc2-c2ccco2)CC1` (stereo not shown) [Compound 347, N-[4-(2-Furyl)-5-(4-methoxycyclohexylcarbonyl)thiazol-2-yl]pyridine-4-carboxamide], with 180 to 187 °C.
The result for `COC1CCC(C(=O)c2sc(NC(=O)c3ccc(C#N)cc3)nc2-c2ccco2)CC1` (stereo not shown) [Compound 348, 4-Cyano-N-[4-(2-furyl)-5-(4-methoxycyclohexylcarbonyl)-thiazol-2-yl]benzamide] reads 105 to 109 °C; that for `O=C1CCC(C(=O)c2sc(NC(=O)c3ccncc3)nc2-c2ccco2)CC1` [Compound 353, N-[4-(2-Furyl)-5-(4-oxocyclohexylcarbonyl)thiazol-2-yl]-pyridine-4-carboxamide], 206 to 212 °C; that for `Cc1cc(C(=O)Nc2nc(-c3ccco3)c(C(=O)C3CCC(=O)CC3)s2)ccn1` [Compound 354, N-[4-(2-Furyl)-5-(4-oxocyclohexylcarbonyl)thiazol-2-yl]-2-methylpyridine-4-carboxamide], 108 to 115 °C.
The result for `O=C1CCC(C(=O)c2sc(NC(=O)c3ccco3)nc2-c2ccco2)CC1` [Compound 355, N-[4-(2-Furyl)-5-(4-oxocyclohexylcarbonyl)thiazol-2-yl]-furan-2-carboxamide] reads 232 to 235 °C; that for `COc1cccc(C(=O)Nc2nc(-c3ccco3)c(C(=O)C3CCC(=O)CC3)s2)c1` [Compound 356, N-[4-(2-Furyl)-5-(4-oxocyclohexylcarbonyl)thiazol-2-yl]-3-methoxybenzamide], 176 to 183 °C.
Take `N#Cc1ccc(C(=O)Nc2nc(-c3ccco3)c(C(=O)C3CCC(=O)CC3)s2)cc1` [Compound 357, 4-Cyano-N-[4-(2-furyl)-5-(4-oxocyclohexylcarbonyl)-thiazole-2-yl]benzamide]: the melting point lay within 211 to 212 °C.
